# Reference: US10793553B2, “TLR7/8 antagonists and uses thereof” (Merck Patent GmbH, priority 2017, dated 2020)
# pIC50: −log10 of the molar value. Structures can show the parent of a compound that is named as a salt.
# Columns and labels:
# TLR7 = molecular target: T1, TLR7 (Homo sapiens, UniProt Q9NYK1); experiment: HEK TLR7 Cell Assay; format: cell-based; conditions: TLR7/NFKb HEK cells, R848 agonist 10 uM final, Steady-Glo readout
# T1 construct: expressed in transfected cells; host or cells: HEK cells carrying TLR7 and an NFkB luciferase reporter
# T1 sequence (Q9NYK1 27-1049): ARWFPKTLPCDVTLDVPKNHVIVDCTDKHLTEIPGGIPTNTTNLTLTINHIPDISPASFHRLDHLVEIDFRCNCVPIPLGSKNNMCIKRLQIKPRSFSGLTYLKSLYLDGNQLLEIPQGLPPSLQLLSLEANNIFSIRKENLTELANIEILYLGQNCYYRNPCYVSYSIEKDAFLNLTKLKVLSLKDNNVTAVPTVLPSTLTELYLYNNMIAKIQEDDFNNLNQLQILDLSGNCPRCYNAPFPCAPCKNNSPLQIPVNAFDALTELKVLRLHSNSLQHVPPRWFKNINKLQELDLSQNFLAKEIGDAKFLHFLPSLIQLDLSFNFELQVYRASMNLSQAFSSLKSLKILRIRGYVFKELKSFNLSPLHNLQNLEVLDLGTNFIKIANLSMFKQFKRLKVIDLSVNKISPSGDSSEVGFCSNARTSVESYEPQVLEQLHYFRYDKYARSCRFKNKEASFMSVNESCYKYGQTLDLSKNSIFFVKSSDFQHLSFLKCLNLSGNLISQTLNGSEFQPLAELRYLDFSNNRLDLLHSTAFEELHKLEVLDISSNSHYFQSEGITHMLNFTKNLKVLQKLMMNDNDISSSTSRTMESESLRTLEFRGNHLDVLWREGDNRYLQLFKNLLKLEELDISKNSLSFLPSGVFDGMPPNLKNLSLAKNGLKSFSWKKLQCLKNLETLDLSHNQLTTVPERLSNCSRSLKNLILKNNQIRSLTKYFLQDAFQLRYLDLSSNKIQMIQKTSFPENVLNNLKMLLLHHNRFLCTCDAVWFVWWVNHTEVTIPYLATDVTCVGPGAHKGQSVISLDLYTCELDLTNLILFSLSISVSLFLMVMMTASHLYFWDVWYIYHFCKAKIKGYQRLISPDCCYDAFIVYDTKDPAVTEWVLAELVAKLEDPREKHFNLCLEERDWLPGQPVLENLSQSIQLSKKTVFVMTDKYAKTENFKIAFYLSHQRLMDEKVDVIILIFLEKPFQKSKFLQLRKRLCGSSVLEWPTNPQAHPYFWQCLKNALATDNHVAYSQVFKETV
# Method: Example 24: HEK TLR7 Cell Assay
# (§1) Into 384 CulturePlates (Corning 3707) was placed 5000 c/w of TLR7/NFKb HEK cells in 30 uL DMEM without Phenol red (gibco #31053) and 10% FCS-HI, 2 mM L-Glutamine, 1% Pen/Strept. The cells are incubated for 24 h at 37 degrees Celsius, and 10% carbon dioxide. Dispense 3 uL of controls, standards, and compounds to wells, incubate for 30 min then add 3 uL of R848 (10 uM final concentration) agonist in 20 mM Hepes. Incubate for 5 hours and then allow to stand at room temperature for 15 min. Add 10 uL of Steady-Glo substrate reagent and shake assay plate for 5 min at 1500 rpm. Let the assay plate sit for 30 min at room temperature and then read plate on EnVision.
# TLR8 = molecular target: T2, TLR8 (Homo sapiens, UniProt Q9NR97); experiment: HEK TLR8 Cell Assay; format: cell-based; conditions: TLR8/NFKb HEK cells, R848 agonist 30 uM final, Steady-Glo readout
# T2 construct: expressed in transfected cells; host or cells: HEK cells carrying TLR8 and an NFkB luciferase reporter
# T2 sequence (Q9NR97 27-1041): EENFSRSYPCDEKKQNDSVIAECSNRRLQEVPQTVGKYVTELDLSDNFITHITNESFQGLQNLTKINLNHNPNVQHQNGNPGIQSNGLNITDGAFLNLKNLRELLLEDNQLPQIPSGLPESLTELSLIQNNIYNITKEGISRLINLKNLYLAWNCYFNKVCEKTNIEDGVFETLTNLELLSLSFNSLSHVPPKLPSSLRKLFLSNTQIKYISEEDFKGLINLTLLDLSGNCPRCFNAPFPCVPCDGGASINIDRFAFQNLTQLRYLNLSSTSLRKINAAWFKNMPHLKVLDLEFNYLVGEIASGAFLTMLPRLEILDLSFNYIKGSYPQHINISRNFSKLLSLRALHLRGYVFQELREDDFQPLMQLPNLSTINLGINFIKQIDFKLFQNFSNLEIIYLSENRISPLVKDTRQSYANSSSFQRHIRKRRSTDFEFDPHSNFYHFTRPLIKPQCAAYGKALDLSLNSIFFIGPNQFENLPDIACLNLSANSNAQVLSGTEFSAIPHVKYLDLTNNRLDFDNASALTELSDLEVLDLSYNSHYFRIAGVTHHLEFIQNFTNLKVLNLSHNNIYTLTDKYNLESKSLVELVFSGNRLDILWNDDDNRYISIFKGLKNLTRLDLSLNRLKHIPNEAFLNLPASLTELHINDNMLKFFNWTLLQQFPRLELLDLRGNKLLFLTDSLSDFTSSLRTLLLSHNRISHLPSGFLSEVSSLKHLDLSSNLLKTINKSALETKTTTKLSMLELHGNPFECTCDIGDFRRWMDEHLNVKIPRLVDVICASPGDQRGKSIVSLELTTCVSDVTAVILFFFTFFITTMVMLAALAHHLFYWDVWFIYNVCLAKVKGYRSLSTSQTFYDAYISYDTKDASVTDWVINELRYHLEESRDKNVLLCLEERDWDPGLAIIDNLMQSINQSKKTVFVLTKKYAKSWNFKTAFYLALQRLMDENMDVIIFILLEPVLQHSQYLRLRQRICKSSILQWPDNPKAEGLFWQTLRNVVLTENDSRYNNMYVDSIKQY
# Method: Example 25: HEK TLR8 Cell Assay
# as §1, with “TLR8/NFKb” for “TLR7/NFKb”, “(30” for “(10”
Compound,pIC50 (TLR7),pIC50 (TLR8)
"CC1CN(c2ccc(C#N)c3nccnc23)CC1N (stereo not shown) [Compound 56, 8-(3-Amino-4-methyl-pyrrolidin-1-yl)-quinoxaline-5-carbonitrile hydrochloride]",> 6.00,> 6.00
"NC1CN(c2ccc(C(F)(F)F)c3ncccc23)CC1F (single isomer, unassigned) [Compound 50]",< 5.00,< 5.00
"Cc1ncc(N2C[C@@H](C)[C@@H](NC(=O)CC3CCN(C)CC3)C2)c2cccnc12 [Compound 52, N-[(3R,4R)-4-methyl-1-(8-methyl-[1,7]naphthyridin-5-yl)-pyrrolidin-3-yl]-2-(1-methyl-piperidin-4-yl)-acetamide]",> 6.00,< 5.00
"Cc1ccc(N2C[C@@H](C)[C@@H](NC(=O)[C@@H](O)C(C)C)C2)c2cccnc12 [Compound 47, (2S)-2-hydroxy-3-methyl-N-[(3R,4R)-4-methyl-1-(8-methylquinolin-5-yl)pyrrolidin-3-yl]butanamide]",5.00 to 6.00,< 5.00
"C[C@@H]1CN(c2ccc(C(F)(F)F)c3ncccc23)C[C@@H]1NC(=O)CC1(C)CCN(C)CC1 [Compound 24, 2-(1,4-dimethylpiperidin-4-yl)-N-[(3R,4R)-4-methyl-1-[8-(trifluoromethyl)quinolin-5-yl]pyrrolidin-3-yl]acetamide]",> 6.00,> 6.00
"C[C@@H]1CN(c2ccc(C(F)(F)F)c3ncccc23)C[C@@H]1NC(=O)CC1CCCN(C)C1 (single isomer, unassigned) [Compound 19]",> 6.00,> 6.00
"C[C@@H]1CN(c2ccc(C(F)(F)F)c3ncccc23)C[C@@H]1NC(=O)CC1CCN(C)C1 (single isomer, unassigned) [Compound 21]",> 6.00,> 6.00
"C[C@@H]1CN(c2ccc(C#N)c3nccnc23)C[C@@H]1NC(=O)C(O)C1CC1 (single isomer, unassigned) [Compound 14]",> 6.00,5.00 to 6.00
"C[C@@H]1CN(c2ccc(C#N)c3nccnc23)C[C@@H]1NC(=O)CC1CCN(C)CC1(F)F (single isomer, unassigned) [Compound 12]",> 6.00,> 6.00
"Cc1ccc(N2C[C@@H](C)[C@@H](NC(=O)C(O)C3CC3)C2)c2cccnc12 (single isomer, unassigned) [Compound 46]",5.00 to 6.00,< 5.00
"C[C@@H]1CN(c2ccc(C#N)c3nccnc23)C[C@@H]1N [Compound 1, 8-[(3R,4R)-3-amino-4-methylpyrrolidin-1-yl]quinoxaline-5-carbonitrile]",> 6.00,5.00 to 6.00
